Assay results as given in patent US8653100B2 (AbbVie Inc., priority 2008, dated 2014).
Counter-ions that a name gives are not always drawn. Like-named read-outs stand apart in the source and are kept apart here.

What was measured:
[1] = molecular target: human GlyT1c (Homo sapiens (Human), UniProt P48067); assay: [3H]-Glycine uptake into recombinant CHO cells expressing human GlyT1; type: cell-based; conditions: hGlyT1c_5_CHO cells, 200 nM [3H]-glycine
Outline: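 hGlyT1c-expressing CHO cells plated at 20,000 cells/well and cultured 24 h; [3H]-glycine incorporation read continuously by solid-phase scintillation for up to 3 h. IC50 from four-parameter logistic fit using the linear uptake phase between 60 and 120 min.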

[2] = molecular target: human GlyT1c transporter (Homo sapiens (Human), UniProt P48067); assay: Radioligand binding assay using recombinant CHO cell membranes expressing human GlyT1; conditions: read-out: radioligand binding Kiapp
Chain of human GlyT1c transporter (P48067 whole entry): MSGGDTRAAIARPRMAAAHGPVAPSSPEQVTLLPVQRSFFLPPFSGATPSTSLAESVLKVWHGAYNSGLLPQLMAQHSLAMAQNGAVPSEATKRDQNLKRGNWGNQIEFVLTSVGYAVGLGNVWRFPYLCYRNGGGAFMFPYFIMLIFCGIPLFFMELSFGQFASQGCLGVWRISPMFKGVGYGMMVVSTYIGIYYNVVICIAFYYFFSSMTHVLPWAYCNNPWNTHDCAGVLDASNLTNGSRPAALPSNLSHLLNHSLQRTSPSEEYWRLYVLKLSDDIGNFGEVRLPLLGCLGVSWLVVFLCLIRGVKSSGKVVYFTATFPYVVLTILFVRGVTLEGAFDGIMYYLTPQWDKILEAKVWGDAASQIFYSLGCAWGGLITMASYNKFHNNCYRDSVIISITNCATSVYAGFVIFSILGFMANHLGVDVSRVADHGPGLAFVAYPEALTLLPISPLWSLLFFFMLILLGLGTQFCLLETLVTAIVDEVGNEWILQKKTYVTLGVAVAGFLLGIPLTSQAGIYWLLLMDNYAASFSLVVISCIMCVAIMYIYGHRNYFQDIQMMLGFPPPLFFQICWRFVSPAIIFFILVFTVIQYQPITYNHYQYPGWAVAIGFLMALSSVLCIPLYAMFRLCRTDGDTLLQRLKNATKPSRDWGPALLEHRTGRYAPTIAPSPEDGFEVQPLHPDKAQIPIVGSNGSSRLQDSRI
Outline: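 Competition binding of [^3H]-(R)-NPTS (0.5 nM) to CHO membranes expressing human GlyT1c (50 μg/ml protein) in pH 7.5 Hepes/NaCl buffer with 1% DMSO, 1 h at room temperature. Non-specific binding defined with 10 μM Org24598; filtration and scintillation counting, one-site fit, Ki via Cheng-Prusoff.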

[3] = radioligand [3H]-(R)-NPTS (examples 1-19, 22-52, 54-87)
[4] = examples 88-204, radioligand not specified by footnote

Chain of human GlyT1c (P48067 whole entry): as above

IC50 [1]	Ki [2, 3]	Ki [2, 4]	SMILES
≤ 10 µM	≤ 10 µM		O=S(=O)(Cc1ccccc1)NCCOc1ccc2c(c1)C(C1(c3ccc(Cl)cc3)CCC1)NCC2 (stereo not drawn) [Example 32, N-(2-{1-[1-(4-Chloro-phenyl)-cyclobutyl]-1,2,3,4-tetrahydro-isoquinolin-7-yloxy}-ethyl)-C-phenyl-methanesulfonamide hydrochloride]
≤ 10 µM		≤ 10 µM	CN(C)CCCS(=O)(=O)NCCOc1ccc2c(c1)C(C1(c3ccc(Cl)cc3)CCC1)NCC2 (stereo not drawn) [Example 181, N-[2-({1-[1-(4-Chlorophenyl)cyclobutyl]-1,2,3,4-tetrahydroisoquinolin-7-yl}oxy)ethyl]-3-(dimethylamino)propane-1-sulfonamide (2E)-but-2-enedioate]
≤ 100 µM		≤ 1 µM	O=S(=O)(Nc1ccccc1Oc1ccc2c(c1)C(C1(c3ccc(Cl)cc3)CCC1)NCC2)c1cccs1 (stereo not drawn) [Example 116, N-[2-({1-[1-(4-Chlorophenyl)cyclobutyl]-1,2,3,4-tetrahydroisoquinolin-7-yl}oxy)phenyl]thiophene-2-sulfonamide hydrochloride]
≤ 10 µM		≤ 1 µM	O=S(=O)(NCc1ccc2c(c1)C(C1(c3ccc(Cl)cc3)CCC1)NCC2)c1cccnc1 (stereo not drawn) [Example 108, N-({1-[1-(4-Chlorophenyl)cyclobutyl]-1,2,3,4-tetrahydroisoquinolin-7-yl}methyl)pyridine-3-sulfonamide dihydrochloride]
≤ 1 µM	≤ 1 µM		O=S(=O)(NCCOc1cc2c(cc1F)CCNC2C1(c2ccc(Cl)cc2)CCC1)c1ccccc1 (stereo not drawn) [Example 13, N-(2-{1-[1-(4-Chloro-phenyl)-cyclobutyl]-6-fluoro-1,2,3,4-tetrahydro-isoquinolin-7-yloxy}-ethyl)-benzenesulfonamide hydrochloride]
≤ 10 µM		≤ 1 µM	Nc1ccc(S(=O)(=O)NCCOc2ccc3c(c2)C(C2(c4ccc(Cl)cc4)CCC2)NCC3)cn1 (stereo not drawn) [Example 165, 6-Amino-N-[2-({1-[1-(4-chlorophenyl)cyclobutyl]-1,2,3,4-tetrahydroisoquinolin-7-yl}oxy)ethyl]pyridine-3-sulfonamide]
≤ 10 µM	≤ 10 µM		O=C(NCCOc1ccc2c(c1)C(C1(c3ccc(Cl)cc3)CCC1)NCC2)c1ccc(Cl)cc1Cl (stereo not drawn) [Example 1, 2,4-Dichloro-N-(2-{1-[1-(4-chloro-phenyl)-cyclobutyl]-1,2,3,4-tetrahydro-isoquinolin-7-yloxy}-ethyl)-benzamide]
≤ 1 µM	≤ 1 µM		COc1ccc(S(=O)(=O)NCCOc2ccc3c(c2)C(C2(c4ccc(Cl)cc4)CCC2)NCC3)cc1 (stereo not drawn) [Example 31, N-(2-{1-[1-(4-Chloro-phenyl)-cyclobutyl]-1,2,3,4-tetrahydro-isoquinolin-7-yloxy}-ethyl)-4-methoxy-benzenesulfonamide hydrochloride]

SMILES	IC50 [1]	Ki [2, 3]	Ki [2, 4]
COc1ccccc1S(=O)(=O)NCCOc1ccc2c(c1)C(C1(c3ccc(Cl)cc3)CCC1)NCC2 (stereo not drawn) [Example 18, N-(2-{1-[1-(4-Chloro-phenyl)-cyclobutyl]-1,2,3,4-tetrahydro-isoquinolin-7-yloxy}-ethyl)-2-methoxy-benzenesulfonamide hydrochloride]	≤ 1 µM	≤ 10 µM	
